US20230061116A1, “TARGETING PAR1 AND PAR2 TO REGULATE LIPID AND CHOLESTEROL ABUNDANCE” (Mayo Foundation for Medical Education and Research, priority 2020, published 2023)

B1: BDNF: subtherapeutic growth factor BDNF (protein, UniProt P23560 19-247, looked up)
Neurotrophic factor BDNF …: APMKEANIRGQGGLAYPGVRTHGTLESVNGPKAGSRGLTSLADTFEHVIEELLDEDQKVRPNEENNKDADLYTSRVMLSSQVPLEPPLLFLLEEYKNYLDAANMSMRVRRHSDPARRGELSVCDSISEWVTAADKKTAVDMSGGTVTVLEKVPVSKGQLKQYFYETKCNPMGYTKEGCRGIDKRHWNSQCRTTQSYVRALTMDSKKRIGWRFIRIDTSCVCTLTIKRGR

Legend:
[1] = tested on: primary mouse cortical neurons; test: Neurite outgrowth under statin inhibition of cholesterol production; format: cell-based; settings: statin-treated cultures
Source text: Neurite outgrowth was quantified by staining for TUJ1 (a cytoskeletal protein present in both axons and dendrites) and measuring TUJ1+ area (the average of 5 randomly selected fields per well, 6 wells per treatment). *P<0.05 SNK, n=6 all groups.
Neurite outgrowth was quantified by staining for TUJ1 (a cytoskeletal protein present in both axons and dendrites) and measuring TUJ1+ area (the average of 5 randomly selected fields per well, 6 wells per treatment).

SH-SY5Y cells = test: Cellular cholesterol content, amplex red colorimetric assay; format: cell-based, human; settings: 100 nM, 72 hours (FIG. 22)
Experimental: FIG. 22 is a graph plotting human neuronal (SH-SY5Y) cells grown in the presence of the small molecule PAR1 inhibitor, Vorapaxar (“Vora,” at 100 nM) or control for 72 hours. […] Cholesterol content was quantified by the amplex red colorimetric assay. Finally, cholesterol levels were evaluated in a human neuronal cell line (SH-SY5Y cells) grown in the presence of the small molecule PAR1 inhibitor, Vorapaxar, for 72 hours.

[2] = tested on: primary mouse cortical neurons; test: Neurite outgrowth (TUJ1+ area) in primary cortical neurons; format: cell-based; settings: co-treatment with subtherapeutic BDNF; 24 and 72 hours of treatment (FIG. 12)
Experimental: FIG. 12 contains a series of images showing that inhibition of PAR1 signaling accelerates neurite outgrowth in primary mouse cortical neurons. Murine neurons were cultured for 24 hours before addition of the PAR1 inhibitor Vorapaxar, subtherapeutic growth factor BDNF, or both. […] Neurite outgrowth was quantified by staining for TUJI (a cytoskeletal protein present in both axons and dendrites) and measuring TUJI+ area (the average of 5 randomly selected fields per well, 6 wells per treatment). Production of lipids and cholesterol, major constituents of neuronal membranes, was required to grow both axons and dendrites. Results are plotted in the graphs in the right panel (*P<0,05 SNK, n=6 all groups, both timepoints). […] Murine neurons were cultured for 24 hours before addition of the PAR1 inhibitor Vorapaxar, subtherapeutic growth factor BDNF, or both. […] Neurite outgrowth was quantified by staining for TUJ1 (a cytoskeletal protein present in both axons and dendrites) and measuring TUJ1+ area (the average of 5 randomly selected fields per well, 6 wells per treatment). Production of lipids and cholesterol, major constituents of neuronal membranes, was required to grow both axons and dendrites.

Murine neurons = test: Growth of new neurites after transection (scratch) injury in vitro; format: cell-based, mouse; settings: co-treatment with subtherapeutic BDNF, added following scratch injury (FIG. 14)
Experimental: FIG. 14 contains a series of images showing that inhibition of PAR1 signaling accelerates growth of new neurites following transection injury in vitro. Murine neurons were cultured in vitro to confluence, and then a large wound was created by mechanically scratching the center of each field. The PAR1 inhibitor Vorapaxar, subtherapeutic growth factor BDNF, or both were added following injury. […] Results are plotted in the graph in the right panel (*P<0.05 SNK, n=6 all groups). Inhibition of PAR1 signaling accelerated growth of new neurites following transection injury in vitro (FIG. 14). Murine neurons were cultured in vitro to confluence, and then a large wound was created by mechanically scratching the center of each field. The PAR1 inhibitor Vorapaxar, subtherapeutic growth factor […], or both were added following injury.

HMGCS1 = HMGCS1 expression in primary cortical neurons (real-time quantitative PCR); format: cell-based, murine
Experimental: FIG. 3 is a graph plotting HMGCS1 expression in cultures of primary cortical neurons treated with the PAR1 small molecule inhibitor Vorapaxar (100 nM) or vehicle control for 72 hours.
Expression of HMGCS1, an enzyme responsible for production of HMGCoA for the rate-limiting step in cholesterol biosynthesis, was quantified by real-time quantitative PCR.
HMGCS1 is responsible for production of HMGCoA for the rate-limiting step in cholesterol biosynthesis.

[3] = tested on: primary mouse cortical neurons; test: Synaptogenesis (Homer puncta per TUJ1+ area) in primary cortical neurons; format: cell-based; settings: co-treatment with subtherapeutic BDNF; 24 and 72 hours of treatment (FIG. 13)
Experimental: FIG. 13 contains images showing that inhibition of PAR1 signaling accelerates synaptogenesis in primary mouse cortical neurons. Murine neurons were cultured in vitro for 24 hours before addition of the PAR1 inhibitor Vorapaxar, subtherapeutic growth factor BDNF, Or both. […] Synapse density was quantified by staining for Homer, a scaffold protein concentrated at the post-synaptic densities by counting puncta in ImageJ. Synapse counts were normalized by total neurite area (TUJ1+ area) to determine the density of synapses on neurites (average of 5 randomly selected fields per well, 6 wells per treatment). Results are plotted in the graphs in the right panel *P<0.05 SNK, n=6 all groups, both timepoints). Inhibition of PAR1 signaling also accelerated synaptogenesis in primary mouse cortical neurons (FIG. 13). Murine neurons were cultured in vitro for 24 hours before addition of the PAR1 inhibitor Vorapaxar, subtherapeutic growth factor BDNF, or both. […] Synapse density was quantified by staining for Homer, a scaffold protein concentrated at the post-synaptic densities by counting puncta in ImageJ. Synapse counts were normalized by total neurite area (TUJ1+ area) to determine the density of synapses on neurites (average of 5 randomly selected fields per well, 6 wells per treatment).

| Molecule | recovery of neurite production (TUJ1+ area) from statin treatment ([1]; agent alone (FIG. 16)) | recovery of neurite production (TUJ1+ area) from statin treatment ([1]; co-treatment of PAR1 inhibitor with subtherapeutic BDNF (FIG. 16)) | cellular cholesterol vs untreated cells (SH-SY5Y cells) | production of neurites (TUJ1+ area) [2] | growth of new neurites through the injury zone (TUJ1+ area in the scratch) (Murine neurons) | HMGCS1 expression (HMGCS1; primary cortical neurons, 100 nM, 72 hours, vs vehicle-treated controls (FIG. 3)) | expression of HMGCS1 (real-time quantitative PCR) (HMGCS1; primary murine cortical neurons, with or without co-treatment with BDNF (FIG. 15)) | production of synaptic densities (Homer puncta normalized by TUJ1+ area) [3] |
| --- | --- | --- | --- | --- | --- | --- | --- | --- |
| CCOC(=O)N[C@@H]1CC[C@@H]2[C@@H](C1)C[C@H]1C(=O)O[C@H](C)[C@H]1[C@H]2/C=C/c1ccc(-c2cccc(F)c2)cn1 [Vorapaxar] | did not result in recovery of neurite production | partially rescued neurite production from statin treatment | more than twice the amount of cellular cholesterol | potentiated the effect of BDNF, significantly increasing production of neurites | potentiated the effect of BDNF, significantly increasing growth of new neurites through the injury zone | promoted increases in HMGCS1 expression | increased the expression of HMGCS1 | potentiated the effect of BDNF, significantly increasing production of synaptic densities |
| B1 | did not result in recovery of neurite production |  |  |  |  |  |  |  |
